Consider 19 molecules from the supplement of paper PMC8967900.

Structures are written as SMILES.
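Note: ALL cell lines in 384-well plates, five doses spanning 10,000-fold, each plate scaled between vehicle and 100 µmol/L benzalkonium chloride controls, sDSS an adapted area-under-curve metric.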

The first test deals with MHH-CALL-4. Briefly: selective drug sensitivity score (sDSS, relative to normal bone marrow) (sDSS (score)); higher = more potent and effective on the cell line relative to normal bone marrow cells. To be noted: 72 h.
With `Cc1nc(Nc2ncc(C(=O)Nc3c(C)cccc3Cl)s2)cc(N2CCN(CCO)CC2)n1` [Dasatinib] (top concentration 1000 nM), the “selective drug sensitivity score” value is -2.8.
On the same count and under the same terms, in the case of `N[C@@H]1CCCN(c2c(/C=C3\SC(=O)NC3=O)cccc2-c2ccccc2)C1` [AZD1208] (top concentration 10000 nM) it was 3.9.
Still for that read-out and setting: in the case of `CC(C)C[C@H](NC(=O)CNC(=O)c1cc(Cl)ccc1Cl)B(O)O` [Ixazomib] (top concentration 1000 nM) it was 7.96; in that of `C=CC(=O)N1CCC[C@@H](n2nc(-c3ccc(Oc4ccccc4)cc3)c3c(N)ncnc32)C1` [Ibrutinib] (top concentration 1000 nM), 0; in that of `Cn1cnc2c(F)c(Nc3ccc(Br)cc3F)c(C(=O)NOCCO)cc21` [Binimetinib] (top concentration 1000 nM), 4.98.
Still for that read-out and setting: in the case of `COc1cc(Nc2ncc(F)c(Nc3ccc4c(n3)N(COP(=O)(O)O)C(=O)C(C)(C)O4)n2)cc(OC)c1OC` [Fostamatinib] (top concentration 2500 nM) it was -2.74; in that of `COc1cc2c(Oc3ccc(NC(=O)C4(C(=O)Nc5ccc(F)cc5)CC4)cc3F)ccnc2cc1OCCCN1CCOCC1` [Foretinib] (top concentration 1000 nM), 1.64; in that of `Sc1ncnc2nc[nH]c12` [Mercaptopurine] (top concentration 10000 nM), 11.1.
Consider `COCCNCc1ccc(-c2cc3nccc(Oc4ccc(NC(=S)NC(=O)Cc5ccc(F)cc5)cc4F)c3s2)nc1` [Glesatinib] (top concentration 2500 nM), for which the “selective drug sensitivity score” value came out at 0.14.
The same measure, in the same setting: with `Cn1nccc1Nc1nccc(-c2ccn([C@H](CO)c3ccc(Cl)c(F)c3)c(=O)c2)n1` [Ravoxertinib] (top concentration 10000 nM) the figure was 11.
The same measure, in the same setting: with `CC1=NN(c2ccc(C(=O)O)cc2)C(=O)C1=Cc1ccc(-c2cc(C)c(C)cc2[N+](=O)[O-])o1` [C646] (top concentration 25000 nM) the figure was -2.06.
Regarding `CC(C)c1cc(C(=O)N2Cc3ccc(CN4CCN(C)CC4)cc3C2)c(O)cc1O` [Onalespib] (top concentration 2500 nM), the “selective drug sensitivity score” value was -0.48.
The same measure, in the same setting: with `CCN1C(=O)CNc2ncc(-c3ccc(-c4nc[nH]n4)nc3C)nc21` [CC-115] (top concentration 10000 nM) the figure was 7.34.
The same measure, in the same setting: with `COc1cc(N2CCC(N3CCN(C)CC3)CC2)ccc1Nc1ncc(Cl)c(Nc2ccccc2P(C)(C)=O)n1` [Brigatinib] (top concentration 1000 nM) the figure was -3.34; with `CN1CCN(c2nc(C3=C(c4c[nH]c5ccccc45)C(=O)NC3=O)c3ccccc3n2)CC1` [Sotrastaurin] (top concentration 10000 nM), 4.2.
Same read-out and setting: in the case of `CCN(CC)Cc1ccc2cc(COC(=O)Nc3ccc(C(=O)NO)cc3)ccc2c1` [Givinostat] (top concentration 1000 nM) it was 3.4; in that of `CNC(=O)c1cc(Oc2ccc(NC(=O)Nc3ccc(Cl)c(C(F)(F)F)c3)cc2)ccn1` [Sorafenib] (top concentration 1000 nM), 0.
On to `COc1ccc(S(=O)(=O)Nc2cccnc2Nc2ccc(O)cc2)cc1` [ABT-751] (top concentration 10000 nM), for which the “selective drug sensitivity score” value came to 3.52.
On the same count and under the same terms, with `C[C@@H](Oc1ccc2[nH]nc(/C=C/c3cnn(CCO)c3)c2c1)c1c(Cl)cncc1Cl` (top concentration 1000 nM) the figure was -0.64.

In the next test the test system is PEER. The test is described as above. To be noted: 72 h.
`Cc1nc(Nc2ncc(C(=O)Nc3c(C)cccc3Cl)s2)cc(N2CCN(CCO)CC2)n1` [Dasatinib] (top concentration 1000 nM): the “selective drug sensitivity score” value was found to be 17.2.
Same read-out and setting: in the case of `N[C@@H]1CCCN(c2c(/C=C3\SC(=O)NC3=O)cccc2-c2ccccc2)C1` [AZD1208] (top concentration 10000 nM) it was -2.7; in that of `CC(C)C[C@H](NC(=O)CNC(=O)c1cc(Cl)ccc1Cl)B(O)O` [Ixazomib] (top concentration 1000 nM), 7.66; in that of `C=CC(=O)N1CCC[C@@H](n2nc(-c3ccc(Oc4ccccc4)cc3)c3c(N)ncnc32)C1` [Ibrutinib] (top concentration 1000 nM), 0.6.
Still for that read-out and setting: with `Cn1cnc2c(F)c(Nc3ccc(Br)cc3F)c(C(=O)NOCCO)cc21` [Binimetinib] (top concentration 1000 nM) the figure was 0.58; with `COc1cc(Nc2ncc(F)c(Nc3ccc4c(n3)N(COP(=O)(O)O)C(=O)C(C)(C)O4)n2)cc(OC)c1OC` [Fostamatinib] (top concentration 2500 nM), 0.66.
Still for that read-out and setting: in the case of `COc1cc2c(Oc3ccc(NC(=O)C4(C(=O)Nc5ccc(F)cc5)CC4)cc3F)ccnc2cc1OCCCN1CCOCC1` [Foretinib] (top concentration 1000 nM) it was 5.04; in that of `Sc1ncnc2nc[nH]c12` [Mercaptopurine] (top concentration 10000 nM), 6.7; in that of `COCCNCc1ccc(-c2cc3nccc(Oc4ccc(NC(=S)NC(=O)Cc5ccc(F)cc5)cc4F)c3s2)nc1` [Glesatinib] (top concentration 2500 nM), 4.54.
Consider `Cn1nccc1Nc1nccc(-c2ccn([C@H](CO)c3ccc(Cl)c(F)c3)c(=O)c2)n1` [Ravoxertinib] (top concentration 10000 nM), for which the “selective drug sensitivity score” value was -0.3.
Still for that read-out and setting: in the case of `CC1=NN(c2ccc(C(=O)O)cc2)C(=O)C1=Cc1ccc(-c2cc(C)c(C)cc2[N+](=O)[O-])o1` [C646] (top concentration 25000 nM) it was -0.66.
For `CC(C)c1cc(C(=O)N2Cc3ccc(CN4CCN(C)CC4)cc3C2)c(O)cc1O` [Onalespib] (top concentration 2500 nM), the “selective drug sensitivity score” value came out at 0.52.
Still for that read-out and setting: with `CCN1C(=O)CNc2ncc(-c3ccc(-c4nc[nH]n4)nc3C)nc21` [CC-115] (top concentration 10000 nM) the figure was 2.34.
As to `COc1cc(N2CCC(N3CCN(C)CC3)CC2)ccc1Nc1ncc(Cl)c(Nc2ccccc2P(C)(C)=O)n1` [Brigatinib] (top concentration 1000 nM), the “selective drug sensitivity score” value is -3.34.
On the same count and under the same terms, with `CN1CCN(c2nc(C3=C(c4c[nH]c5ccccc45)C(=O)NC3=O)c3ccccc3n2)CC1` [Sotrastaurin] (top concentration 10000 nM) the figure was 4; with `CCN(CC)Cc1ccc2cc(COC(=O)Nc3ccc(C(=O)NO)cc3)ccc2c1` [Givinostat] (top concentration 1000 nM), 6.1; with `CNC(=O)c1cc(Oc2ccc(NC(=O)Nc3ccc(Cl)c(C(F)(F)F)c3)cc2)ccn1` [Sorafenib] (top concentration 1000 nM), 0.1.
Still for that read-out and setting: in the case of `COc1ccc(S(=O)(=O)Nc2cccnc2Nc2ccc(O)cc2)cc1` [ABT-751] (top concentration 10000 nM) it was 15.5; in that of `C[C@@H](Oc1ccc2[nH]nc(/C=C/c3cnn(CCO)c3)c2c1)c1c(Cl)cncc1Cl` (top concentration 1000 nM), 5.46.

The next test has as its system COG-LL-319h. The description is as above. The note with it: 72 h.
Regarding `Cc1nc(Nc2ncc(C(=O)Nc3c(C)cccc3Cl)s2)cc(N2CCN(CCO)CC2)n1` [Dasatinib] (top concentration 1000 nM), the “selective drug sensitivity score” value was determined as 9.2.
`N[C@@H]1CCCN(c2c(/C=C3\SC(=O)NC3=O)cccc2-c2ccccc2)C1` [AZD1208] (top concentration 10000 nM): the “selective drug sensitivity score” value was -4.4.
On the same count and under the same terms, with `CC(C)C[C@H](NC(=O)CNC(=O)c1cc(Cl)ccc1Cl)B(O)O` [Ixazomib] (top concentration 1000 nM) the figure was 6.06; with `C=CC(=O)N1CCC[C@@H](n2nc(-c3ccc(Oc4ccccc4)cc3)c3c(N)ncnc32)C1` [Ibrutinib] (top concentration 1000 nM), 5.2.
In the case of `Cn1cnc2c(F)c(Nc3ccc(Br)cc3F)c(C(=O)NOCCO)cc21` [Binimetinib] (top concentration 1000 nM), the “selective drug sensitivity score” value came to 2.98.
Still for that read-out and setting: with `COc1cc(Nc2ncc(F)c(Nc3ccc4c(n3)N(COP(=O)(O)O)C(=O)C(C)(C)O4)n2)cc(OC)c1OC` [Fostamatinib] (top concentration 2500 nM) the figure was 15.3; with `COc1cc2c(Oc3ccc(NC(=O)C4(C(=O)Nc5ccc(F)cc5)CC4)cc3F)ccnc2cc1OCCCN1CCOCC1` [Foretinib] (top concentration 1000 nM), 3.44.
On the same count and under the same terms, in the case of `Sc1ncnc2nc[nH]c12` [Mercaptopurine] (top concentration 10000 nM) it was 17.7; in that of `COCCNCc1ccc(-c2cc3nccc(Oc4ccc(NC(=S)NC(=O)Cc5ccc(F)cc5)cc4F)c3s2)nc1` [Glesatinib] (top concentration 2500 nM), 3.74.
